This is an account of results in PubChem BioAssay (NCI).

Structures are written as SMILES. Where “and” joins values, the source holds several entries; their conditions need not be identical. Identical values can stand only once.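 These data come from cells grown in 96-well plates and exposed to compound for 48 hours at five concentrations. GI50 is the concentration that inhibits growth by half. TGI marks complete inhibition of growth.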 Bounds are passed on as bounds.

Among the test systems are EKVX NSCLC; HT29 colon; KM12 colon; OVCAR-8 ovarian; SF-268 CNS; SK-MEL-2 melanoma; SK-MEL-28 melanoma; SR leukemia; UO-31 renal; HS 578T breast.
Common to all, as to assay: growth of human tumour cells (NCI), 48 h

On to `Nc1nc(CCC(=O)Nc2cccc(C(F)(F)F)c2)cc(-c2cccc3ccccc23)n1`, for which the TGI in the assay on EKVX NSCLC, in the assay with HT29 colon, in the assay with KM12 colon, with OVCAR-8 ovarian, in the assay with SF-268 CNS and with SK-MEL-2 melanoma was over 100 µM throughout. Moreover, the TGI in the assay on SK-MEL-28 melanoma, with SR leukemia and with UO-31 renal was over 100 µM each time.

On to `CC(C)(C)OC(=O)NCCNC1=CC(=O)c2nc3ccccc3c3ccnc1c23`, for which the GI50 in the assay with EKVX NSCLC was 41.4 µM; with HS 578T breast, 25.5 µM; in the assay on HT29 colon it was 17.9 µM; with KM12 colon it was 22.7 µM; with OVCAR-8 ovarian, 16.6 µM; in the assay on SF-268 CNS it was 18.7 µM. The figures for the GI50 in the assay with SK-MEL-2 melanoma, in the assay with SK-MEL-28 melanoma and in the assay on UO-31 renal were 28.4 µM, 13.3 µM and 28.8 µM, respectively. For the same compound, the TGI in the assay on EKVX NSCLC is over 100 µM; in the assay with HS 578T breast, 73.8 µM; with HT29 colon, 43.8 µM; with KM12 colon, 66.6 µM; in the assay on OVCAR-8 ovarian, over 100 µM; in the assay with SF-268 CNS, 77.1 µM. Moreover, the TGI is 85.1 µM in the assay with SK-MEL-2 melanoma, 28.9 µM in the assay with SK-MEL-28 melanoma and over 100 µM in the assay with UO-31 renal.

As to `COc1ccc(C#Cc2ccccc2C#CCCCCO)cc1`, the GI50 in the assay on EKVX NSCLC was 23.6 µM; with HS 578T breast, 28.3 µM; in the assay with HT29 colon, 12.3 µM; in the assay on KM12 colon, 17.7 µM; in the assay with OVCAR-8 ovarian, 18.1 µM; in the assay on SF-268 CNS, 21.7 µM. Also, the results for the GI50 in the assay with SK-MEL-2 melanoma, in the assay with SK-MEL-28 melanoma and in the assay on UO-31 renal were 19.8 µM, 12.2 µM and 21.2 µM, respectively. Further, the TGI is 54 µM in the assay on EKVX NSCLC; 65.1 µM in the assay with HS 578T breast; 24.8 µM with HT29 colon; 33.4 µM with KM12 colon; 38.6 µM in the assay on OVCAR-8 ovarian; 42.9 µM in the assay on SF-268 CNS. Also, the TGI with SK-MEL-2 melanoma is 38.9 µM; with SK-MEL-28 melanoma, 24.8 µM; in the assay with UO-31 renal, 39.6 µM.

Regarding `CCC[CH2][Sn]([CH2]CCC)([O]C(=O)c1c(F)cccc1F)[O]C(=O)c1c(F)cccc1F`, the GI50 is 1.04 µM with EKVX NSCLC; 1.52 µM in the assay with HT29 colon; 1.51 µM in the assay on KM12 colon; 1.18 µM in the assay with OVCAR-8 ovarian; 0.565 µM with SF-268 CNS; 0.221 µM in the assay on SK-MEL-2 melanoma. Moreover, the GI50 was 0.599 µM in the assay on SK-MEL-28 melanoma, 0.318 µM in the assay with SR leukemia and 1.31 µM in the assay on UO-31 renal. The TGI is 2.22 µM with EKVX NSCLC; 2.87 µM in the assay with HT29 colon; 2.83 µM in the assay with KM12 colon; 2.41 µM in the assay with OVCAR-8 ovarian; 1.83 µM with SF-268 CNS; 0.916 µM in the assay on SK-MEL-2 melanoma. Further, the TGI with SK-MEL-28 melanoma is 1.87 µM; in the assay on SR leukemia, 2.14 µM; in the assay on UO-31 renal, 2.59 µM.

For `CCOc1ccccc1NC(=O)CCC(=O)OC`, the TGI in the assay with EKVX NSCLC, in the assay with HT29 colon, in the assay on KM12 colon, with OVCAR-8 ovarian, in the assay on SF-268 CNS and in the assay with SK-MEL-2 melanoma was over 100 µM each time. Moreover, the TGI in the assay on SK-MEL-28 melanoma, in the assay on SR leukemia and in the assay with UO-31 renal was over 100 µM each time.

In the case of `CC1=CC2CC(C)=C(CC[C@]3(C)CC[C@H]([C@@H](C)C(=O)O)OO3)C(C)(C)C2CC1` (stereo not given in full), the TGI in the assay with EKVX NSCLC was determined as 3.64 µM; in the assay with HT29 colon, 0.429 µM; with KM12 colon, 0.316 µM; with OVCAR-8 ovarian, 1.31 µM; in the assay with SF-268 CNS it was 3.24 µM; in the assay with SK-MEL-2 melanoma, 3.09 µM. The TGI in the assay with SK-MEL-28 melanoma was 3.1 µM; with SR leukemia it was 0.382 µM; with UO-31 renal it was 2.23 µM.

With `NNC(=S)N/N=C(\CCCC(=O)NCCc1ccccc1)CC(=O)c1ccccc1`, the TGI in the assay with EKVX NSCLC, with HT29 colon, with KM12 colon, with OVCAR-8 ovarian, in the assay on SF-268 CNS and in the assay with SK-MEL-2 melanoma was over 100 µM throughout. In addition, the TGI with SK-MEL-28 melanoma, in the assay with SR leukemia and with UO-31 renal was over 100 µM in each case.

Consider `O=C1OC(=O)c2c1c(-c1ccccc1)cn2-c1ccc(Cl)cc1`, for which the TGI with EKVX NSCLC, with HT29 colon, in the assay with KM12 colon, in the assay with OVCAR-8 ovarian, in the assay with SF-268 CNS and in the assay on SK-MEL-2 melanoma was over 100 µM each time. For the same compound, the TGI in the assay on SK-MEL-28 melanoma, with SR leukemia and in the assay with UO-31 renal was over 100 µM throughout.

Consider `CC1[C@@H]2[C@@H](C=C3C4CCC5Cc6nc7c(nc6C[C@@]5(C)C4C[C@H](O)[C@]32CO)CC2CCC3C4=C[C@H]5O[C@@]6(O[C@@](C)(CO)C[C@@H]6O)C(C)[C@@]5(O)[C@]4(C)[C@@H](O)CC3[C@]2(C)C7)O[C@]12CCC(C)(C)O2` (stereo not given in full), for which the GI50 in the assay with EKVX NSCLC is 0.0119 µM; in the assay on HT29 colon it was 0.00302 µM; in the assay with KM12 colon, 0.17 µM; with OVCAR-8 ovarian it was over 3.65 µM; in the assay with SF-268 CNS, 0.00304 µM; in the assay on SK-MEL-2 melanoma, 0.0114 µM. Also, the GI50 in the assay on UO-31 renal is 0.117 µM. The TGI was 0.749 µM and 2 µM with EKVX NSCLC; 0.44 µM and 0.414 µM in the assay on HT29 colon; 0.611 µM and > 3.65 µM in the assay on KM12 colon; over 3.65 µM with OVCAR-8 ovarian; 0.945 µM and 0.0972 µM with SF-268 CNS; 0.455 µM and 0.284 µM with SK-MEL-2 melanoma. The TGI in the assay on SK-MEL-28 melanoma is 0.238 µM; in the assay on SR leukemia it was 0.229 µM; with UO-31 renal it was 0.158 µM and 0.286 µM.

Turning to `COC(=O)Cc1cc(OC)c(OC)cc1Br`, the TGI in the assay with EKVX NSCLC, in the assay with HT29 colon, with KM12 colon, in the assay on OVCAR-8 ovarian, with SF-268 CNS and with SK-MEL-2 melanoma was over 100 µM in each case. Further, the TGI in the assay with SK-MEL-28 melanoma, in the assay with SR leukemia and in the assay with UO-31 renal was over 100 µM in each case.

As for `O=C(/C=C/c1ccc(B(O)O)cc1)/C=C/c1ccc(B(O)O)cc1`, the GI50 in the assay with HS 578T breast was 1.54 µM; in the assay with HT29 colon, 1.82 µM; in the assay with KM12 colon, 1.66 µM; in the assay with OVCAR-8 ovarian, 9.39 µM; in the assay on SF-268 CNS it was 3.39 µM; in the assay on SK-MEL-2 melanoma, 16 µM. Besides, the values for the GI50 in the assay on SK-MEL-28 melanoma and in the assay with UO-31 renal were 2.26 µM and 1.91 µM, respectively. Moreover, the TGI was determined as 5.57 µM in the assay on HS 578T breast; 3.95 µM in the assay on HT29 colon; 3.23 µM with KM12 colon; 22 µM with OVCAR-8 ovarian; 12.1 µM in the assay with SF-268 CNS; 40.9 µM in the assay on SK-MEL-2 melanoma. In addition, the TGI came out at 5.21 µM in the assay with SK-MEL-28 melanoma and 4.73 µM in the assay with UO-31 renal.
